Measured values published in patent US20120214824A1, “PROTEOSTASIS REGULATORS” (priority 2010, published 2012).

Key:
Test in all cases: Multigene assay (QuantiGene Plex 2.0), mouse MEF cell line
Format in all cases: cell-based
Details in all cases: 6 hours post-compound treatment
[1] = test system: HSPA1a
Method: (§1) This assay used the QuantiGene Plex 2.0 Reagent System from Affymetrix. This assay combines the use of bDNA (branch DNA) and xMAP magnetic capture beads from Luminex Technologies to quantitatively and simultaneously detect multiple mRNA transcripts per well. The overall procedure was performed according to the QuantiGene Plex 2.0 Reagent System instruction manual from Affymetrix.
(§2) Cells were seeded at a density of 12,000 cells/well in 96-well plates with an overnight incubation at 37° C., 5% CO2. Cells were treated with serially diluted compounds in a 7-point dose dependent manner. Cell lysis with 50% [v/v] Panomics Lysis Mixture (Lysis Mixture+10 μl/ml 25 Proteinase K) was performed 6 hours post-compound treatment. Lysed cells were heated at 50° C. to ensure appropriate lysing and the plates were then frozen at −80° C. Cell lysates, thawed at room temperature on the day of the assay, were pooled with mouse 8-gene multiplex probe sets and with 8 different sets of magnetic capture beads (Luminex Technology, Austin, Tex.) in a 100 μl/well volume. Biomek FX was used at every liquid transfer step. The eight plates containing lysate-probe-bead mixtures were incubated at 54° C.±1° C. on a shaking platform for an overnight incubation in the dark (18-20 hours). The following day the hybridization plates were compressed by transferring the hybridized lysates into a single magnetic capture plate. The plate was kept on a magnet to hold the beads and then washed with Panomics Wash Buffer 2.0 on a BioTek ELx405 select plate washer to remove any unbound sample. This step was followed by serial hybridizations and washings of the bDNA pre-amplifier (1 hour, 50° C.), bDNA amplifier (1 hour, 50° C.), label probe (1 hour, 50° C.), and streptavidin-phycoerythrin (SAPE, 30 minutes, room temperature). (Zhang, A. et al. Small interfering RNA and gene expression analysis using a multiplex branched DNA assay without RNA purification. J Biomol Screen 10, 549-56 (2005)). The plate was then washed with SAPE wash buffer to remove unbound SAPE and each well was analyzed with the Luminex FlexMap3D (Luminex, Austin, Tex.). SAPE fluorescence measured from each bead was proportional to the number of mRNA transcripts captured by the beads (Zheng, Z., Luo, Y. & McMaster, G. K. Sensitive and quantitative measurement of gene expression directly from a small amount of whole blood. Clin Chem 52, 1294-302 (2006)). Fold changes in gene expression were obtained for each gene per well by normalizing the raw data first to the DMSO control and then to a housekeeping gene (TBP-TATA binding protein or Tub1-alpha-tubulin).

[2] = test system: HspA5
Method: as §1, §2

[3] = test system: DDIT3
Method: as §1, §2

[4] = test system: BCL2
Method: as §1, §2

[5] = test system: GCLM
Method: as §1, §2

[6] = test system: TUB1
Method: as §1, §2

[7] = test system: HMOX
Method: as §1, §2

Compound: CCCc1n[nH]c2c1C(C1CC=CCC1)C(C#N)=C(N)O2 (stereo not shown)
- HSPA1a gene induction ([1]; Table 5): — (— Indicates less than 2 fold induction)
- HspA5 gene induction ([2]; Table 5): — (— Indicates less than 2 fold induction)
- DDIT3 gene induction ([3]; Table 5): — (— Indicates less than 2 fold induction)
- BCL2 gene induction ([4]; Table 5): — (— Indicates less than 2 fold induction)
- GCLM gene induction ([5]; Table 5): + (+ indicates a induction of greater than 2 fold)
- TUB1 gene induction ([6]; Table 5): — (— Indicates less than 2 fold induction)
- HMOX gene induction ([7]; Table 5): + (+ indicates a induction of greater than 2 fold)

Compound: COC(=O)C1=C(C)Nc2c(c(=O)n(C)c(=O)n2C)C1c1ccc(F)cc1 (stereo not shown) [A]
- HSPA1a gene induction ([1]; Table 6): — (— Indicates less than 2 fold induction)
- HspA5 gene induction ([2]; Table 6): — (— Indicates less than 2 fold induction)
- DDIT3 gene induction ([3]; Table 6): + (+ indicates a induction of greater than 2 fold)
- BCL2 gene induction ([4]; Table 6): + (+ indicates a induction of greater than 2 fold)
- GCLM gene induction ([5]; Table 6): — (— Indicates less than 2 fold induction)
- TUB1 gene induction ([6]; Table 6): — (— Indicates less than 2 fold induction)
- HMOX gene induction ([7]; Table 6): — (— Indicates less than 2 fold induction)

Compound: CCn1c2c(c(=O)[nH]c1=O)C(c1cccc3ccccc13)C1=C(N2)c2ccccc2C1=O (stereo not shown) [B]
- HSPA1a gene induction ([1]; Table 6): + (+ indicates a induction of greater than 2 fold)
- HspA5 gene induction ([2]; Table 6): — (— Indicates less than 2 fold induction)
- DDIT3 gene induction ([3]; Table 6): + (+ indicates a induction of greater than 2 fold)
- BCL2 gene induction ([4]; Table 6): — (— Indicates less than 2 fold induction)
- GCLM gene induction ([5]; Table 6): — (— Indicates less than 2 fold induction)
- TUB1 gene induction ([6]; Table 6): — (— Indicates less than 2 fold induction)
- HMOX gene induction ([7]; Table 6): + (+ indicates a induction of greater than 2 fold)

Compound: COCC1=C(C(=O)OCC(C)C)C(c2ccc(F)cc2)C2=C(CC(c3cccs3)CC2=O)N1 (stereo not shown) [drawing 26/CH2OMe/COOCH2CHMe2/p-F]
- HSPA1a gene induction ([1]; Table 1b): − (− Indicates less than 2 fold induction)
- HspA5 gene induction ([2]; Table 1b): − (− Indicates less than 2 fold induction)
- DDIT3 gene induction ([3]; Table 1a): + (+ indicates a induction of greater than 2 fold)
- BCL2 gene induction ([4]; Table 1b): − (− Indicates less than 2 fold induction)
- GCLM gene induction ([5]; Table 1a): − (− Indicates less than 2 fold induction)
- TUB1 gene induction ([6]; Table 1a): − (− Indicates less than 2 fold induction)
- HMOX gene induction ([7]; Table 1b): + (+ indicates a induction of greater than 2 fold)

Compound: COc1ccccc1C1C(C#N)=C(C)NC2=C1C(=O)CC(c1ccccc1)C2 (stereo not shown) [drawing 27/Me/CN/o-OMe/H]
- HSPA1a gene induction ([1]; Table 2b): + (+ indicates a induction of greater than 2 fold)
- HspA5 gene induction ([2]; Table 2b): − (− Indicates less than 2 fold induction)
- DDIT3 gene induction ([3]; Table 2a): − (− Indicates less than 2 fold induction)
- BCL2 gene induction ([4]; Table 2b): − (− Indicates less than 2 fold induction)
- GCLM gene induction ([5]; Table 2a): − (− Indicates less than 2 fold induction)
- TUB1 gene induction ([6]; Table 2a): − (− Indicates less than 2 fold induction)
- HMOX gene induction ([7]; Table 2b): − (− Indicates less than 2 fold induction)

Compound: COc1ccc(C2CC(=O)C3=C(C2)NC(C)=C(C(=O)OCC(C)C)C3c2cccc(F)c2)cc1 (stereo not shown) [drawing 27/Me/COOCH2CHMe2/m-F/OMe]
- HSPA1a gene induction ([1]; Table 2b): + (+ indicates a induction of greater than 2 fold)
- HspA5 gene induction ([2]; Table 2b): − (− Indicates less than 2 fold induction)
- DDIT3 gene induction ([3]; Table 2a): − (− Indicates less than 2 fold induction)
- BCL2 gene induction ([4]; Table 2b): + (+ indicates a induction of greater than 2 fold)
- GCLM gene induction ([5]; Table 2a): + (+ indicates a induction of greater than 2 fold)
- TUB1 gene induction ([6]; Table 2a): − (− Indicates less than 2 fold induction)
- HMOX gene induction ([7]; Table 2b): + (+ indicates a induction of greater than 2 fold)

Compound: CC1=C(C(=O)OCC(C)C)C(c2ccccc2OC(C)C)C2=C(CC(c3ccccc3)CC2=O)N1 (stereo not shown) [drawing 27/Me/COOCH2CHMe2/o-OCHMe2/H]
- HSPA1a gene induction ([1]; Table 2b): − (− Indicates less than 2 fold induction)
- HspA5 gene induction ([2]; Table 2b): − (− Indicates less than 2 fold induction)
- DDIT3 gene induction ([3]; Table 2a): + (+ indicates a induction of greater than 2 fold)
- BCL2 gene induction ([4]; Table 2b): − (− Indicates less than 2 fold induction)
- GCLM gene induction ([5]; Table 2a): − (− Indicates less than 2 fold induction)
- TUB1 gene induction ([6]; Table 2a): − (− Indicates less than 2 fold induction)
- HMOX gene induction ([7]; Table 2b): − (− Indicates less than 2 fold induction)
